What follows are compounds tested on ATF4 luciferase reporter in HEK293T cells (assay: ATF4-Luc assay (ATF4 luciferase reporter, tunicamycin-treated HEK293T cells)). Conditions: Homo sapiens, HEK-293T; HEK293T cells carrying the ATF4 luciferase reporter, 1 μg/mL tunicamycin, 7 hours.
Format: cell-based, human

SMILES	EC50 [nM]
CN(C(=O)COc1ccc(Cl)c(Cl)c1)C12CC(NC(=O)COc3ccc(F)c(Cl)c3)(C1)C2 [Compound 197, N-{3-[2-(3-chloro-4-fluorophenoxy)acetamido]bicyclo[1.1.1]pentan-1-yl}-2-(3,4-dichlorophenoxy)-N-methylacetamide]	50 to 250
O=C(COc1ccc(C(F)(F)F)c(F)c1)NC12CCC(NC(=O)COc3ccc(Cl)cc3)(CC1)[C@@H](O)C2 [Compound 843, 2-(4-chlorophenoxy)-N-[(2S)-4-{2-[3-fluoro-4-(trifluoromethyl)phenoxy]acetamido}-2-hydroxybicyclo[2.2.2]octan-1-yl]acetamide]	< 10
O=C(COc1ccc(C(F)(F)F)nc1)NC12CCC(NC(=O)COc3ccc(Cl)c(F)c3)(CC1)[C@@H](O)C2 [Compound 589, 2-(4-chloro-3-fluorophenoxy)-N-[(2S)-2-hydroxy-4-(2-{[6-(trifluoromethyl)pyridin-3-yl]oxy}acetamido)bicyclo[2.2.2]octan-1-yl]acetamide]	< 10
O=C(COc1ccc(Cl)c(F)c1)NC12CC(NC(=O)COc3ccccn3)(C1)C2 [Compound 402, 2-(4-chloro-3-fluorophenoxy)-N-(3-{2-[(pyridin-2-yl)oxy]acetamido}bicyclo[1.1.1]pentan-1-yl)acetamide]	50 to 250
O=C(COc1ccc(Cl)c(Cl)c1)NC12CCC(NC(=O)COc3ccc(Cl)c(F)c3)(CC1)[C@@H](O)C2 [Compound 438, 2-(4-chloro-3-fluorophenoxy)-N-{(2S)-4-[2-(3,4-dichlorophenoxy)acetamido]-2-hydroxybicyclo[2.2.2]octan-1-yl}acetamide]	< 10
O=C(COc1ccc2c(c1)OC(F)(F)O2)NC12CCC(NC(=O)COc3ccc(F)c(F)c3)(CC1)[C@@H](O)C2 [Compound 804, 2-[(2,2-difluoro-2H-1,3-benzodioxol-5-yl)oxy]-N-{(3S)-4-[2-(3,4-difluorophenoxy)acetamido]-3-hydroxybicyclo[2.2.2]octan-1-yl}acetamide]	< 10
O=C(CO)NC(COC(=O)NC12CC(NC(=O)COc3ccc(Cl)c(F)c3)(C1)C2)c1ccc(Cl)cc1 (centres unmarked) [Compound 791, 2-(4-chlorophenyl)-2-(2-hydroxyacetamido)ethyl {3-[2-(4-chloro-3-fluorophenoxy)acetamido]bicyclo[1.1.1]pentan-1-yl}carbamate]	> 2000
O=C(COc1ccc(F)c(F)c1)NC12CC(NC(=O)COc3ccc4c(c3)OC(F)(F)O4)(C1)C2 [Compound 379, 2-[(2,2-difluoro-2H-1,3-benzodioxol-5-yl)oxy]-N-{3-[2-(3,4-difluorophenoxy)acetamido]bicyclo[1.1.1]pentan-1-yl}acetamide]	< 10
O=C(COc1ccc(Cl)c(F)c1)NC12CCC(OCc3ccc(Cl)cc3)(CC1)CC2=O [Compound 564, 2-(4-chloro-3-fluorophenoxy)-N-{4-[(4-chlorophenyl)methoxy]-2-oxobicyclo[2.2.2]octan-1-yl}acetamide]	> 2000
CN(C)C1CC2(NC(=O)COc3ccc(Cl)c(F)c3)CCC1(NC(=O)COc1ccc(Cl)c(F)c1)CC2 (centres unmarked) [Compound 300, N,N′-[2-(dimethylamino)bicyclo[2.2.2]octane-1,4-diyl]bis[2-(4-chloro-3-fluorophenoxy)acetamide]]	10 to 50
O=C(COCCc1cccc(Cl)c1)NC12CC(NC(=O)COc3ccc(Cl)c(Cl)c3)(C1)C2 [Compound 151, 2-[2-(3-chlorophenyl)ethoxy]-N-{3-[2-(3,4-dichlorophenoxy)acetamido]-bicyclo[1.1.1]pentan-1-yl}acetamide]	< 10
N#CCc1cc(OCC(=O)NC23CC(NC(=O)COc4ccc(Cl)c(F)c4)(C2)C3)ccc1Cl [Compound 262, 2-[4-chloro-3-(cyanomethyl)phenoxy]-N-{3-[2-(4-chloro-3-fluorophenoxy)acetamido]bicyclo[1.1.1]pentan-1-yl}acetamide]	10 to 50
O=C(COc1cncc(C(F)(F)F)c1)NC12CC(NC(=O)COc3ccc(Cl)c(F)c3)(C1)C2 [Compound 230, 2-(4-chloro-3-fluorophenoxy)-N-[3-(2-{[5-(trifluoromethyl)pyridin-3-yl]oxy}acetamido)bicyclo[1.1.1]pentan-1-yl]acetamide]	10 to 50
O=C(COc1ccc(Cl)c(F)c1)NC12CCC(NC(=O)COc3ccnc(C(F)(F)F)c3)(CC1)[C@H](O)C2 (single isomer, unassigned) [Compound 318]	10 to 50
O=C(COc1ccc(Cl)c(F)c1)NC12CC(NC(=O)COc3cnn(CC(F)(F)F)c(=O)c3)(C1)C2 [Compound 310, 2-(4-chloro-3-fluorophenoxy)-N-[3-(2-{[6-oxo-1-(2,2,2-trifluoroethyl)-1,6-dihydropyridazin-4-yl]oxy}acetamido)bicyclo[1.1.1]pentan-1-yl]acetamide]	50 to 250
O=C(COc1ccc(C(F)(F)F)nc1)NC12CCC(NC(=O)COc3ccc(C(F)(F)F)nc3)(CC1)C2 [Compound 530, N,N′-(bicyclo[2.2.1]heptane-1,4-diyl)bis(2-{[6-(trifluoromethyl)pyridin-3-yl]oxy}acetamide)]	500 to 2000

SMILES	EC50 [nM]
CC(=O)O[C@H]1CC2(NC(=O)COc3ccc(Cl)c(F)c3)CCC1(NC(=O)COc1ccc(Cl)c(F)c1)CC2 [Compound 445, (2S)-1,4-bis[2-(4-chloro-3-fluorophenoxy)acetamido]bicyclo[2.2.2]octan-2-yl acetate]	< 10
O=C(COc1ccc(Cl)c(F)c1)NC12CCC(NC(=O)COc3ccc(C(F)(F)F)nc3)(CC1)C(F)C2 (centres unmarked) [Compound 366, 2-(4-chloro-3-fluorophenoxy)-N-[3-fluoro-4-(2-{[6-(trifluoromethyl)pyridin-3-yl]oxy}acetamido)bicyclo[2.2.2]octan-1-yl]acetamide]	10 to 50
O=C(COc1ccccc1)NC12CCC(NC(=O)COc3ccc(Cl)c(F)c3)(CC1)[C@@H](O)C2 [Compound 840, 2-(4-chloro-3-fluorophenoxy)-N-[(2S)-2-hydroxy-4-(2-phenoxyacetamido)bicyclo[2.2.2]octan-1-yl]acetamide]	< 10
N#Cc1ccc(COCC(=O)NC23CC(NC(=O)COc4ccc(Cl)c(F)c4)(C2)C3)cc1 [Compound 139, 2-(4-chloro-3-fluorophenoxy)-N-(3-{2-[(4-cyanophenyl)methoxy]acetamido}-bicyclo[1.1.1]pentan-1-yl)acetamide]	250 to 500
Cc1cccc(COCC(=O)NC23CC(NC(=O)COc4ccc(Cl)c(Cl)c4)(C2)C3)n1 [Compound 153, 2-(3,4-dichlorophenoxy)-N-(3-{2-[(6-methylpyridin-2-yl)methoxy]acetamido}bicyclo[1.1.1]pentan-1-yl)acetamide]	50 to 250
O=C(COc1ccc2c(c1)OC(F)(F)C(F)(F)O2)NC12CCC(NC(=O)COc3ccc(Cl)c(F)c3)(CC1)[C@@H](O)C2 [Compound 702, 2-(4-chloro-3-fluorophenoxy)-N-[(2S)-2-hydroxy-4-{2-[(2,2,3,3-tetrafluoro-2,3-dihydro-1,4-benzodioxin-6-yl)oxy]acetamido}bicyclo[2.2.2]octan-1-yl]acetamide]	< 10
O=C(COc1ccc(S(F)(F)(F)(F)F)cc1)NC12CCC(NC(=O)COc3ccc(Cl)c(F)c3)(CC1)[C@@H](O)C2 [Compound 839, 2-(4-chloro-3-fluorophenoxy)-N-[(2S)-2-hydroxy-4-{2-[4-(pentafluoro-lambda^6-sulfanyl)phenoxy]acetamido}bicyclo[2.2.2]octan-1-yl]acetamide]	< 10
Cc1cc(OCC(=O)NC23CC(NC(=O)COc4ccc(Cl)cc4)(C2)C3)ccc1Cl [Compound 116, 2-(4-chloro-3-methylphenoxy)-N-{3-[2-(4-chlorophenoxy)acetamido]bicyclo-[1.1.1]pentan-1-yl}acetamide]	< 10
COCC1CC2(NC(=O)COc3ccc(Cl)c(F)c3)CCC1(NC(=O)COc1ccc(Cl)c(F)c1)CC2 (centres unmarked) [Compound 716, N,N′-[2-(methoxymethyl)bicyclo[2.2.2]octane-1,4-diyl]bis[2-(4-chloro-3-fluorophenoxy)acetamide]]	10 to 50
Cc1cc(C)cc(OCC(=O)NC23CCC(NC(=O)COc4ccc(Cl)c(F)c4)(CC2)C[C@@H]3O)c1 [Compound 502, 2-(4-chloro-3-fluorophenoxy)-N-{(3S)-4-[2-(3,5-dimethylphenoxy)acetamido]-3-hydroxybicyclo[2.2.2]octan-1-yl}acetamide]	50 to 250
O=C(COc1ccc(Cl)c(F)c1)NC12CCC(NC(=O)COc3ccc4cn[nH]c4c3)(C1)C2 [Compound 187, 2-(4-chloro-3-fluorophenoxy)-N-(4-{2-[(1H-indazol-6-yl)oxy]acetamido}bicyclo[2.1.1]hexan-1-yl)acetamide]	50 to 250
O=C(COc1ccc(Cl)c(F)c1)NC12CCCC(NC(=O)OCc3ccccc3)(C1)C2 [Compound 181, benzyl {5-[2-(4-chloro-3-fluorophenoxy)acetamido]bicyclo[3.1.1]heptan-1-yl}carbamate]	> 2000
Cc1ccc(OCC(=O)NC23CCC(NC(=O)COc4ccc(Cl)c(F)c4)(CC2)[C@@H](O)C3)cc1F [Compound 737, 2-(4-chloro-3-fluorophenoxy)-N-{(2S)-4-[2-(3-fluoro-4-methylphenoxy)acetamido]-2-hydroxybicyclo[2.2.2]octan-1-yl}acetamide]	< 10
O=C(COc1ccc(F)c(F)c1)NC12CCC(NC(=O)COc3ccc(F)c(F)c3)(CC1)C(O)C2 (centres unmarked) [Compound 363, N,N′-(2-hydroxybicyclo[2.2.2]octane-1,4-diyl)bis[2-(3,4-difluorophenoxy)acetamide]]	< 10
O=C(COc1ccc(Cl)c(F)c1)NC12CC(NS(=O)(=O)Cc3ccc(Cl)cc3)(C1)C2 [Compound 427, 2-(4-chloro-3-fluorophenoxy)-N-(3-{[(4-chlorophenyl)methanesulfonyl]amino}bicyclo[1.1.1]pentan-1-yl)acetamide]	500 to 2000
CS(=O)(=O)c1cc(OCC(=O)NC23CCC(NC(=O)COc4ccc(Cl)c(F)c4)(CC2)[C@@H](O)C3)ccc1F [Compound 826, 2-(4-chloro-3-fluorophenoxy)-N-[(2S)-4-{2-[4-fluoro-3-(methanesulfonyl)phenoxy]acetamido}-2-hydroxybicyclo[2.2.2]octan-1-yl]acetamide]	50 to 250

Reference: patent US20240166652A1, “MODULATORS OF THE INTEGRATED STRESS PATHWAY” (Calico Life Sciences LLC, priority 2017, published 2024)
